Experimental data: patent US9062041B2 (Bayer Intellectual Property GmbH, priority 2011, dated 2015)

Assays:
Type in all cases: cell-based
human PGD receptor = target: T1, human PGD receptor (Homo sapiens, UniProt Q13258); test: cAMP antagonism test on the human prostaglandin D receptor (HTRF cAMP detection); settings: selectivity towards hDP, IC50 measured by cAMP antagonism test
T1 sequence (Q13258 1-359): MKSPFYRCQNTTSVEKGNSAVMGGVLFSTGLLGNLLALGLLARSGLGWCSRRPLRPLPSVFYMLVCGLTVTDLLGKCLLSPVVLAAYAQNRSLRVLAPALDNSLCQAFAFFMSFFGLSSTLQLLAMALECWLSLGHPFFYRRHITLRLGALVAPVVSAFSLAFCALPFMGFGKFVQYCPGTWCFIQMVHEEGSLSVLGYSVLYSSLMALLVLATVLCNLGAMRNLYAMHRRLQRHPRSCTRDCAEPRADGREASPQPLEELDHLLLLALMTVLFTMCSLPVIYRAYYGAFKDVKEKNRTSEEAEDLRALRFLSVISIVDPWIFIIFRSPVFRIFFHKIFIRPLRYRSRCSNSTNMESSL
Summary of the method: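 Cells pre-mixed with cAMP-d2 were preincubated with compound (0.8 nM–16.5 μM) for 20 min at RT, then stimulated with 3× PGD2 solution (6 nM, in PBS-IBMX) for 30 min at RT. After lysis (20 min), HTRF read at 665/620 nm; antagonism seen as rise in FRET ratio.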

[1] = target: EP4 subtype of the human PGE2 receptor (Homo sapiens, UniProt P35408); test: cAMP antagonism test on the human EP4 receptor (HTRF cAMP detection); settings: selectivity towards hEP4, IC50 measured by cAMP antagonism test
Summary of the method: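 Cells expressing human EP4 preincubated 20 min at RT with compound (0.8 nM–16.5 μM), then stimulated with PGE2 (0.3 nM in 3× solution, with IBMX) 60 min at RT. After lysis, cAMP measured by HTRF competition (665/620 nm ratio); antagonism seen as rise in FRET signal.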

[2] = target: EP2 subtype of the human PGE2 receptor (Homo sapiens, UniProt P43116); test: cAMP antagonism test on the human EP2 receptor (HTRF cAMP detection); settings: hEP2 receptor, read-out: Antagonism hEP2 IC50
Summary of the method: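 Cells expressing human EP2 preincubated 20 min at RT with compound (0.8 nM–16.5 μM), then stimulated 60 min with PGE2 (3× solution 1.5 nM) in PBS-IBMX. After 20 min lysis, cAMP measured by competitive HTRF with cAMP-d2 and Eu cryptate anti-cAMP antibody (665/620 nm ratio).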

Sequence of EP2 subtype of the human PGE2 receptor (P43116 whole entry): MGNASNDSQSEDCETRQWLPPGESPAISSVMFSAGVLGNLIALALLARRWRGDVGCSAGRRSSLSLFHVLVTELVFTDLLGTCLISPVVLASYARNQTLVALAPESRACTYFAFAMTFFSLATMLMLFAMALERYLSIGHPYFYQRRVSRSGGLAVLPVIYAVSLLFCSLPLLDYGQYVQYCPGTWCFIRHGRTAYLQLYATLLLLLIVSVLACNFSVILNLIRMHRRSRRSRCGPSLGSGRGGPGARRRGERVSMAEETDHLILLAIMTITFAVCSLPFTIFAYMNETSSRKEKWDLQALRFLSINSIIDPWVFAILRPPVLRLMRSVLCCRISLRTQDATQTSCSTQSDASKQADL
Sequence of EP4 subtype of the human PGE2 receptor (P35408 whole entry): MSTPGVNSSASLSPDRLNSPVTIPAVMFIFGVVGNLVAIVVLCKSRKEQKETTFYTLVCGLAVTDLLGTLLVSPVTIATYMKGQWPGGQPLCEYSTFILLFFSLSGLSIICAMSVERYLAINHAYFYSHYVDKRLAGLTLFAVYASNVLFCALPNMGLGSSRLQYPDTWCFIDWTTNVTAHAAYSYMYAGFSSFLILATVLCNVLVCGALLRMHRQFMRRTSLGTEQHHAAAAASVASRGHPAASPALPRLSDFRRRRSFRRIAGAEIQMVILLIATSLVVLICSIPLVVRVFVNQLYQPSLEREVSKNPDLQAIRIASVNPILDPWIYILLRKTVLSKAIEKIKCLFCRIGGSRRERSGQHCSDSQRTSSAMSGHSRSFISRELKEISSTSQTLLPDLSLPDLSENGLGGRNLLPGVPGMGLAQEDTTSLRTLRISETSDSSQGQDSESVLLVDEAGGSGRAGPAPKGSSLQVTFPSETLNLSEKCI

Structure (SMILES)	Selectivity hEP2/hDP (human PGD receptor)	Selectivity hEP2/hEP4 [1]	IC50 [2]
Cc1c(C(=O)NCCOC(C)(C)C)ccc2nn(CC3CN(C(=O)c4ccc(Cl)cc4)C3)cc12 [Example 153, N-(2-tert-butoxyethyl)-2-{[1-(4-chlorobenzoyl)azetidin-3-yl]methyl}-4-methyl-2H-indazol-5-carboxamide]	xxx (xxx > 100)	xxx (xxx > 100)	60.8 nM
COCCNC(=O)c1ccc2nn(CC3CN(C(=O)c4ccc(-c5ccc(F)cc5)cc4)C3)cc2c1C [Example 158, 2-({1-[(4′-fluorobiphenyl-4-yl)carbonyl]azetidin-3-yl}methyl)-N-(2-methoxy-ethyl)-4-methyl-2H-indazol-5-carboxamide]	xxx (xxx > 100)	xxx (xxx > 100)	6.21 nM
COCCNC(=O)c1ccc2nn(CC3CN(C(=O)c4ccc(Oc5ccc(F)cc5)cc4)C3)cc2c1C [Example 159, 2-({1-[4-(4-fluorophenoxy)benzoyl]azetidin-3-yl}methyl)-N-(2-methoxyethyl)-4-methyl-2H-indazol-5-carboxamide]	xxx (xxx > 100)	xxx (xxx > 100)	6.24 nM
Cc1c(C(=O)NCC(F)(F)F)ccc2nn(CC3CN(C(=O)c4ccc(Oc5ccc(F)cc5)cc4)C3)cc12 [Example 160, 2-({1-[4-(4-fluorophenoxy)benzoyl]azetidin-3-yl}methyl)-4-methyl-N-(2,2,2-trifluoroethyl)-2H-indazol-5-carboxamide]	xxx (xxx > 100)	xxx (xxx > 100)	82.9 nM
Cc1c(C(=O)NCC(F)(F)F)ccc2nn(CC3CN(C(=O)c4ccc(-c5ccc(F)cc5)cc4)C3)cc12 [Example 161, 2-({1-[(4′-fluorobiphenyl-4-yl)carbonyl]azetidin-3-yl}methyl)-4-methyl-N-(2,2,2-trifluoroethyl)-2H-indazol-5-carboxamide]	xxx (xxx > 100)	xxx (xxx > 100)	98.2 nM
Cc1c(C(=O)NCCOCC(F)(F)F)ccc2nn(CC3CN(C(=O)c4ccc(Cl)cc4)C3)cc12 [Example 162, 2-{[1-(4-chlorobenzoyl)azetidin-3-yl]methyl}-4-methyl-N-[2-(2,2,2-trifluoro-ethoxy)ethyl]-2H-indazol-5-carboxamide]	xxx (xxx > 100)	xxx (xxx > 100)	9.33 nM
Cc1c(C(=O)NCCOCC(F)(F)F)ccc2nn(CC3CN(C(=O)c4ccc(Oc5ccc(C(F)(F)F)cc5)cc4)C3)cc12 [Example 163, 4-methyl-N-[2-(2,2,2-trifluoroethoxy)ethyl]-2-[(1-{4-[4-(trifluoromethyl)phenoxy]benzoyl}azetidin-3-yl)methyl]-2H-indazol-5-carboxamide]	xxx (xxx > 100)	xxx (xxx > 100)	6.8 nM
Cc1c(C(=O)NCC(F)(F)F)ccc2nn(CC3CN(C(=O)c4ccc(Oc5ccc(Cl)cc5)cc4)C3)cc12 [Example 165, 2-({1-[4-(4-chlorophenoxy)benzoyl]azetidin-3-yl}methyl)-4-methyl-N-(2,2,2-trifluoroethyl)-2H-indazol-5-carboxamide]	xxx (xxx > 100)	xxx (xxx > 100)	33.4 nM
COc1ccc2c(c1)cc(C(=O)N1CC(Cn3cc4c(C)c(C(=O)NCC(F)(F)F)ccc4n3)C1)n2C [Example 168, 2-({1-[(5-methoxy-1-methyl-1H-indol-2-yl)carbonyl]azetidin-3-yl}methyl)-4-methyl-N-(2,2,2-trifluoroethyl)-2H-indazol-5-carboxamide]	xxx (xxx > 100)	xxx (xxx > 100)	29.3 nM
COc1ccc2cc(C(=O)N3CC(Cn4cc5c(C)c(C(=O)NCC(F)(F)F)ccc5n4)C3)n(C)c2c1 [Example 169, 2-({1-[(6-methoxy-1-methyl-1H-indol-2-yl)carbonyl]azetidin-3-yl}methyl)-4-methyl-N-(2,2,2-trifluoroethyl)-2H-indazol-5-carboxamide]	xxx (xxx > 100)	xxx (xxx > 100)	27.7 nM
COCCNC(=O)c1ccc2nn(CC3CN(C(=O)c4cc5cc(F)ccc5n4C)C3)cc2c1C [Example 170, 2-({1-[(5-fluoro-1-methyl-1H-indol-2-yl)carbonyl]azetidin-3-yl}methyl)-N-(2-methoxyethyl)-4-methyl-2H-indazol-5-carboxamide]	xxx (xxx > 100)	xxx (xxx > 100)	4.25 nM
COCCNC(=O)c1ccc2nn(CC3CN(C(=O)c4cc5cc(Cl)ccc5n4C)C3)cc2c1C [Example 171, 2-({1-[(5-chloro-1-methyl-1H-indol-2-yl)carbonyl]azetidin-3-yl}methyl)-N-(2-methoxyethyl)-4-methyl-2H-indazol-5-carboxamide]	xxx (xxx > 100)	xxx (xxx > 100)	3.88 nM
COCCNC(=O)c1ccc2nn(CC3CN(C(=O)c4cc5cc(OC)ccc5n4C)C3)cc2c1C [Example 172, N-(2-methoxyethyl)-2-({1-[(5-methoxy-1-methyl-1H-indol-2-yl)carbonyl]azetidin-3-yl}methyl)-4-methyl-2H-indazol-5-carboxamide]	xxx (xxx > 100)	xxx (xxx > 100)	3.16 nM
COCCNC(=O)c1ccc2nn(CC3CN(C(=O)c4ccc5ccc(OC)cc5c4)C3)cc2c1C [Example 175, N-(2-methoxyethyl)-2-{[1-(7-methoxy-2-naphthoyl)azetidin-3-yl]methyl}-4-methyl-2H-indazol-5-carboxamide]	xxx (xxx > 100)	xxx (xxx > 100)	8.05 nM
COCCNC(=O)c1ccc2nn(CC3CN(C(=O)c4ccc5cc(OC)ccc5c4)C3)cc2c1C [Example 176, N-(2-methoxyethyl)-2-{[1-(6-methoxy-2-naphthoyl)azetidin-3-yl]methyl}-4-methyl-2H-indazol-5-carboxamide]	xxx (xxx > 100)	xxx (xxx > 100)	7.77 nM

Continued by falling IC50 [2], values first:

Selectivity hEP2/hDP (human PGD receptor)	Selectivity hEP2/hEP4 [1]	IC50 [2]	Structure (SMILES)
xxx (xxx > 100)	xxx (xxx > 100)	13.6 nM	Cc1c(C(=O)NCCOCC2CC2)ccc2nn(CC3CN(C(=O)c4ccc(-c5ccc(F)cc5)cc4)C3)cc12 [Example 157, N-[2-(cyclopropylmethoxy)ethyl]-2-({1-[(4′-fluorobiphenyl-4-yl)carbonyl]azetidin-3-yl}methyl)-4-methyl-2H-indazol-5-carboxamide]
xxx (xxx > 100)	xxx (xxx > 100)	13.5 nM	Cc1c(C(=O)NCC(F)(F)F)ccc2nn(CC3CN(C(=O)c4cc5cc(F)ccc5n4C)C3)cc12 [Example 167, 2-({1-[(5-fluoro-1-methyl-1H-indol-2-yl)carbonyl]azetidin-3-yl}methyl)-4-methyl-N-(2,2,2-trifluoroethyl)-2H-indazol-5-carboxamide]
xxx (xxx > 100)	xxx (xxx > 100)	10.9 nM	Cc1c(C(=O)NCC(F)(F)F)ccc2nn(CC3CN(C(=O)c4ccc(Oc5ccc(C(F)(F)F)cc5)cc4)C3)cc12 [Example 164, 4-methyl-N-(2,2,2-trifluoroethyl)-2-[(1-{4-[4-(trifluoromethyl)phenoxy]benzoyl}azetidin-3-yl)methyl]-2H-indazol-5-carboxamide]
xxx (xxx > 100)	xxx (xxx > 100)	6.58 nM	COCCNC(=O)c1ccc2nn(CC3CN(C(=O)c4ccc(Oc5ccc(C(F)(F)F)cn5)cc4)C3)cc2c1C [Example 174, N-(2-methoxyethyl)-4-methyl-2-{[1-(4-{[5-(trifluoromethyl)pyridin-2-yl]oxy}benzoyl)azetidin-3-yl]methyl}-2H-indazol-5-carboxamide]
xxx (xxx > 100)	xxx (xxx > 100)	2.87 nM	COCCNC(=O)c1ccc2nn(CC3CN(C(=O)c4ccc(Oc5ccc(Cl)cc5)cc4)C3)cc2c1C [Example 166, 2-({1-[4-(4-chlorophenoxy)benzoyl]azetidin-3-yl}methyl)-N-(2-methoxyethyl)-4-methyl-2H-indazol-5-carboxamide]
xxx (xxx > 100)	xxx (xxx > 100)	2.71 nM	COCCNC(=O)c1ccc2nn(CC3CN(C(=O)c4cc5ccc(OC)cc5n4C)C3)cc2c1C [Example 173, N-(2-methoxyethyl)-2-({1-[(6-methoxy-1-methyl-1H-indol-2-yl)carbonyl]azetidin-3-yl}methyl)-4-methyl-2H-indazol-5-carboxamide]
